Results on 17 molecules are retold here after patent US9174982B2, “Apoptosis-inducing agents for the treatment of cancer and immune and autoimmune diseases” (AbbVie Inc., priority 2009, dated 2015).

One data set concerns the target GST-Bcl-2 (Homo sapiens (Human), UniProt P10415). In words: Time Resolved-Fluorescence Resonance Energy Transfer (TR-FRET) Bcl-2 binding assay. The conditions noted are these: GST-Bcl-2 1 nM, F-Bak peptide probe 100 nM, Tb-anti-GST 1 nM; 3 hours at room temperature; < means below limit of detection. For orientation: TR-FRET usually uses a lanthanide donor and a delayed reading to cut background.

For data set [1], the system named is RS4;11 cells. Nature of the data set: RS4;11 cell viability assay. Format: cell-based. The following applies: 10% human serum, 48 hours, CellTiter Glo.
Protocol: Cell cytotoxicity EC50 values were assessed using CellTiter Glo (Promega) according to the manufacturer's recommendations. The EC50 values were determined as a percentage of viable cells following treatment compared to the untreated control cells.
A short description of data set [2]: stability of coupling product during workup and chromatography, monitored by HPLC/MS. The following applies: peak disappeared during workup and chromatography. Format: physicochemical. As to the method:
Specifically, this was discovered by the inventors in the following compound preparation. The intermediate structure F, that directly precedes the final product of the unstable compound, was prepared according to the route below. All intermediates A-F were stable and isolable using techniques known to those skilled in the art.
Intermediate F, shown in the scheme above, was reacted with intermediate G using standard coupling conditions that are known to those skilled in the art. The reaction mixture was analyzed via HPLC/MS to monitor the formation of a peak corresponding to the compound H. While this peak formed within hours of initiating the reaction below, the peak progressively disappeared during workup and chromatography, until it no longer was present. The lack of stability of the putative compound originates from the position of the nitrogen within the fused ring-system described above. This position, which is adjacent to the oxygen-bearing carbon in the 5-substituted-1H-pyrrolo[2,3-c]pyridine ring system shown below and described above, makes the compound H unstable.

The test system of data set [3] is RS4;11 cells. The conditions noted are these: Blood, 2008, Vol. 111, 2300-2309; cited from earlier work.

GST-Bcl-2, sequence (P10415 whole entry): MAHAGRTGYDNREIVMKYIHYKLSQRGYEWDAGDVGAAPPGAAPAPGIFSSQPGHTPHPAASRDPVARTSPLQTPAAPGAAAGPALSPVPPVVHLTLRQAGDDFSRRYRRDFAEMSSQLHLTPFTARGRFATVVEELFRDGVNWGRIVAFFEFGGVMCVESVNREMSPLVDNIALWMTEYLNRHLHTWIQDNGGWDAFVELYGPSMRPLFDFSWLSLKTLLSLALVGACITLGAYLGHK
Protocol for GST-Bcl-2: Determination of the utility of compounds having Formula (I) as binders to and inhibitors of anti-apoptotic Bcl-2 proteins was performed using the Time Resolved-Fluorescence Resonance Energy Transfer (TR-FRET) Assay.
Representative compounds were serially diluted in dimethyl sulfoxide (DMSO) starting at 50 μM (2× starting concentration; 10% DMSO) and 10 μL were transferred into a 384-well plate. The samples are then mixed on a shaker for 1 minute and incubated for an additional 3 hours at room temperature. For each assay, the probe/antibody and protein/probe/antibody were included on each assay plate as negative and positive controls, respectively.
The samples were then mixed on a shaker for 1 minute and incubated for an additional 3 hours at room temperature. For each assay, the probe/antibody and protein/probe/antibody were included on each assay plate as negative and positive controls, respectively.

With “4-(4-{[2-(4-chlorophenyl)-4,4-dimethylcyclohex-1-en-1-yl]methyl}piperazin-1-yl)-N-{[4-({[(Z)-4-hydroxy-1-adamantyl]methyl}amino)-3-nitrophenyl]sulfonyl}-2-(1H-pyrrolo[2,3-b]pyridin-5-yloxy)benzamide [Example 200]”, on GST-Bcl-2, the inhibition constant Ki is < 0.01 nM. Moreover, the midpoint of the response in the data set with RS4;11 cells [1], the EC50, lay at 11 nM.

“4-(4-{[2-(4-chlorophenyl)-4,4-dimethylcyclohex-1-en-1-yl]methyl}piperazin-1-yl)-N-[(4-{[(3R)-1-(2-fluoroethyl)pyrrolidin-3-yl]amino}-3-nitrophenyl)sulfonyl]-2-(1H-pyrrolo[2,b]pyridin-5-yloxy)benzamide [Example 183]”: the inhibitory constant (Ki) at GST-Bcl-2 is < 0.01 nM. For the same molecule, in the data set with RS4;11 cells [1], the concentration giving a half-maximal response (EC50) is 17.5 nM. As to `CC1(C)CCC(CN2CCN(c3ccc(C(=O)NS(=O)(=O)c4ccc(NCC5CCOCC5)c([N+](=O)[O-])c4)c(Oc4cc5cc[nH]c5cn4)c3)CC2)=C(c2ccc(Cl)cc2)C1` [compound H], the stability entry in data set [2] is recorded as “unstable”. Regarding `CC1(C)CCC(CN2CCN(c3ccc(C(=O)NS(=O)(=O)c4ccc(NC[C@H]5CC[C@@](C)(O)CC5)c([N+](=O)[O-])c4)c(Oc4cnc5[nH]ccc5c4)c3)CC2)=C(c2ccc(Cl)cc2)C1` [Example 337, 4-(4-{[2-(4-chlorophenyl)-4,4-dimethylcyclohex-1-en-1-yl]methyl}piperazin-1-yl)-N-[(4-{[(trans-4-hydroxy-4-methylcyclohexyl)methyl]amino}-3-nitrophenyl)sulfonyl]-2-(1H-pyrrolo[2,3-b]pyridin-5-yloxy)benzamide], in the data set on RS4;11 cells [1], the EC50 was determined as 1.76 nM. In other words, the single-digit nanomolar range.

On to `CC1(C)CCC(CN2CCN(c3ccc(C(=O)NS(=O)(=O)c4cnc(OC[C@]5(F)CC[C@@H](O)CC5)c(Cl)c4)c(Oc4cnc5[nH]ccc5c4)c3)CC2)=C(c2ccc(Cl)cc2)C1` [Example 350, N-({5-chloro-6-[(cis-1-fluoro-4-hydroxycyclohexyl)methoxy]pyridin-3-yl}sulfonyl)-4-(4-{[2-(4-chlorophenyl)-4,4-dimethylcyclohex-1-en-1-yl]methyl}piperazin-1-yl)-2-(1H-pyrrolo[2,3-b]pyridin-5-yloxy)benzamide], for which, at GST-Bcl-2, the Ki was < 0.01 nM.

For `COC1(C)CCC(c2ccc(Cl)cc2)=C(CN2CCN(c3ccc(C(=O)NS(=O)(=O)c4ccc(NC[C@H]5CC[C@@](C)(O)CC5)c([N+](=O)[O-])c4)c(Oc4cnc5[nH]ccc5c4)c3)CC2)C1` (stereo partly drawn) [Example 377, 4-(4-{[2-(4-chlorophenyl)-5-methoxy-5-methylcyclohex-1-en-1-yl]methyl}piperazin-1-yl)-N-[(4-{[(trans-4-hydroxy-4-methylcyclohexyl)methyl]amino}-3-nitrophenyl)sulfonyl]-2-(1H-pyrrolo[2,3-b]pyridin-5-yloxy)benzamide], the inhibition constant Ki on GST-Bcl-2 is < 0.001 nM. For the molecule `C[C@]1(O)CC[C@@H](COc2ncc(S(=O)(=O)NC(=O)c3ccc(N4CCN(CC5=C(c6ccc(Cl)cc6)CC6(CC5)CC6)CC4)cc3Oc3cnc4[nH]ccc4c3)cc2Cl)CC1` [Example 341, N-({5-chloro-6-[(trans-4-hydroxy-4-methylcyclohexyl)methoxy]pyridin-3-yl}sulfonyl)-4-(4-{[5-(4-chlorophenyl)spiro[2.5]oct-5-en-6-yl]methyl}piperazin-1-yl)-2-(1H-pyrrolo[2,3-b]pyridin-5-yloxy)benzamide], the inhibition constant (Ki) on GST-Bcl-2 is < 0.01 nM. This molecule registered an EC50 with RS4;11 cells [1] of 31.7 nM.

In the case of `CN(C)CC[C@H](CSc1ccccc1)Nc1ccc(S(=O)(=O)NC(=O)c2ccc(N3CCN(Cc4ccccc4-c4ccc(Cl)cc4)CC3)cc2)cc1[N+](=O)[O-]` [ABT-737, N-(4-(4-((4′-chloro(1,1′-biphenyl)-2-yl)methyl)piperazin-1-yl)benzoyl)-4-(((1R)-3-(dimethylamino)-1-((phenylsulfanyl)methyl)propyl)amino)-3-nitrobenzenesulfonamide], in the data set with RS4;11 cells [3], the “sensitivity of RS4; 11 cells to the inhibitor” value is recorded as “sensitive”. For the molecule “4-(4-{[2-(4-chlorophenyl)-4,4-dimethylcyclohex-1-en-1-yl]methyl}piperazin-1-yl)-N-{[4-({[(E)-4-hydroxy-1-adamantyl]methyl}amino)-3-nitrophenyl]sulfonyl}-2-(1H-pyrrolo[2,3-b]pyridin-5-yloxy)benzamide [Example 199]”, on GST-Bcl-2, the inhibition constant Ki was < 0.01 nM. The molecule also came in with an EC50 in the data set with RS4;11 cells [1] of 5.06 nM.

As for `CC1(C)CCC(CN2CCN(c3ccc(C(=O)NS(=O)(=O)c4ccc(OC[C@H]5CC[C@@](C)(O)CC5)c(Cl)c4)c(Oc4cnc5[nH]ccc5c4)c3)CC2)=C(c2ccc(Cl)cc2)C1` [Example 362, N-({3-chloro-4-[(trans-4-hydroxy-4-methylcyclohexyl)methoxy]phenyl}sulfonyl)-4-(4-{[2-(4-chlorophenyl)-4,4-dimethylcyclohex-1-en-1-yl]methyl}piperazin-1-yl)-2-(1H-pyrrolo[2,3-b]pyridin-5-yloxy)benzamide], the Ki at GST-Bcl-2 was determined as 0.016 nM. The molecule further yielded a concentration for a half-maximal effect (EC50) in the data set on RS4;11 cells [1] of 31.7 nM. For `CCC1(O)CCC(CNc2ccc(S(=O)(=O)NC(=O)c3ccc(N4CCN(CC5=C(c6ccc(Cl)cc6)CC(C)(C)CC5)CC4)cc3Oc3cnc4[nH]ccc4c3)cc2[N+](=O)[O-])CC1` (stereo not drawn) [Example 358, 4-(4-{[2-(4-chlorophenyl)-4,4-dimethylcyclohex-1-en-1-yl]methyl}piperazin-1-yl)-N-[(4-{[(trans-4-ethyl-4-hydroxycyclohexyl)methyl]amino}-3-nitrophenyl)sulfonyl]-2-(1H-pyrrolo[2,3-b]pyridin-5-yloxy)benzamide], the Ki on GST-Bcl-2 was < 0.01 nM.

Take “4-(4-{[2-(4-chlorophenyl)-4,4-dimethylcyclohex-1-en-1-yl]methyl}piperazin-1-yl)-N-{[4-({[cis-3-morpholin-4-ylcyclopentyl]methyl}amino)-3-nitrophenyl]sulfonyl}-2-(1H-pyrrolo[2,3-b]pyridin-5-yloxy)benzamide [Example 188]”: the response in the data set with RS4;11 cells [1] was half-maximal at 16.4 nM (EC50). `CC1(C)CCC(CN2CCN(c3ccc(C(=O)NS(=O)(=O)c4ccc(OCC5COCCN5C5CCOCC5)c([N+](=O)[O-])c4)c(Oc4cnc5[nH]ccc5c4)c3)CC2)=C(c2ccc(Cl)cc2)C1` (stereo not drawn) [Example 104, 4-(4-{[2-(4-chlorophenyl)-4,4-dimethylcyclohex-1-en-1-yl]methyl}piperazin-1-yl)-N({3-nitro-4-[(4-tetrahydro-2H-pyran-4-ylmorpholin-3-yl)methoxy]phenyl}sulfonyl)-2-(1H-pyrrolo[2,3-b]pyridin-5-yloxy)benzamide] displayed a Ki on GST-Bcl-2 of 0.016 nM. In the data set on RS4;11 cells [1], this molecule registered a 50% effective concentration (EC50) of 71.2 nM. In the case of `CC1(C)CCC(CN2CCN(c3ccc(C(=O)NS(=O)(=O)c4cnc(NC[C@H]5CC[C@@](C)(O)CC5)c([N+](=O)[O-])c4)c(Oc4cnc5[nH]ccc5c4)c3)CC2)=C(c2ccc(Cl)cc2)C1` [Example 371, 4-(4-{[2-(4-chlorophenyl)-4,4-dimethylcyclohex-1-en-1-yl]methyl}piperazin-1-yl)-N-[(6-{[(trans-4-hydroxy-4-methylcyclohexyl)methyl]amino}-5-nitropyridin-3-yl)sulfonyl]-2-(1H-pyrrolo[2,3-b]pyridin-5-yloxy)benzamide], the Ki at GST-Bcl-2 is < 0.001 nM. On the same count and under the same terms, for `CC1(C)CCC(CN2CCN(c3ccc(C(=O)NS(=O)(=O)c4cnc(NC[C@H]5CC[C@](C)(O)CC5)c([N+](=O)[O-])c4)c(Oc4cnc5[nH]ccc5c4)c3)CC2)=C(c2ccc(Cl)cc2)C1` [Example 376, 4-(4-{[2-(4-chlorophenyl)-4,4-dimethylcyclohex-1-en-1-yl]methyl}piperazin-1-yl)-N-[(6-{[(cis-4-hydroxy-4-methylcyclohexyl)methyl]amino}-5-nitropyridin-3-yl)sulfonyl]-2-(1H-pyrrolo[2,3-b]pyridin-5-yloxy)benzamide] the value was < 0.001 nM; for `CC[C@]1(O)CC[C@H](CNc2ccc(S(=O)(=O)NC(=O)c3ccc(N4CCN(CC5=C(c6ccc(Cl)cc6)CC(C)(C)CC5)CC4)cc3Oc3cnc4[nH]ccc4c3)cc2[N+](=O)[O-])CC1` [Example 359, 4-(4-{[2-(4-chlorophenyl)-4,4-dimethylcyclohex-1-en-1-yl]methyl}piperazin-1-yl)-N-[(4-{[(cis-4-ethyl-4-hydroxycyclohexyl)methyl]amino}-3-nitrophenyl)sulfonyl]-2-(1H-pyrrolo[2,3-b]pyridin-5-yloxy)benzamide], < 0.01 nM. Molecule “4-(4-{[2-(4-chlorophenyl)-4,4-dimethylcyclohex-1-en-1-yl]methyl}piperazin-1-yl)-N-({3-(pentafluoro-lambda-6-sulfanyl)-4-[(tetrahydro-2H-pyran-4-ylmethyl)amino]phenyl}sulfonyl)-2-(1H-pyrrolo[2,3-b]pyridin-5-yloxy)benzamide [Example 233]” showed a Ki at GST-Bcl-2 of 1.65 nM. Moreover, the concentration giving a half-maximal response (EC50) in the data set on RS4;11 cells [1] is > 1000 nM.

For orientation: Ki means a dissociation constant, usually derived from enzyme kinetics or from competition with a known ligand. For orientation: EC50 means the midpoint of the concentration-response curve. A higher EC50 goes with lower potency in that assay.
